Data: PubChem BioAssay AID2060489 (Molecular Pharmacology Branch, DTP, NCI, 2025)

Tested on: 922993-354-T-J3-PDC complex spheroids, viability
Assay: Anticancer human tumor 922993-354-T-J3-PDC patient-derived endometrial carcinoma cell line growth inhibition [GQUAD]
Settings: for IC50: curve of first compound; for viability, T/C: stronger effect = lower value
Outline: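 Tumor cells were grown as complex spheroids with HUVEC endothelial cells and mesenchymal stem cells as stroma. G-quadruplex stabilizers were combined with targeted agents over half-log dilutions from near the clinical Cmax, or from 10 microM.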

[1] = second compound 0.0316 µM, first compound 0.0316 µM
[2] = second compound 0.0316 µM, first compound 0.1 µM
[3] = second compound 0.0316 µM, first compound 0.316 µM
[4] = second compound 0.0316 µM, first compound 1 µM
[5] = second compound 0.0316 µM, first compound 3.16 µM
[6] = second compound 0.0316 µM, first compound 10 µM
[7] = second compound 0.1 µM, first compound 0.0316 µM
[8] = second compound 0.1 µM, first compound 0.1 µM
[9] = second compound 0.1 µM, first compound 0.316 µM
[10] = second compound 0.1 µM, first compound 1 µM
[11] = second compound 0.1 µM, first compound 3.16 µM
[12] = second compound 0.1 µM, first compound 10 µM
[13] = second compound 0.316 µM, first compound 0.0316 µM
[14] = second compound 0.316 µM, first compound 0.1 µM
[15] = second compound 0.316 µM, first compound 0.316 µM
[16] = second compound 0.316 µM, first compound 1 µM
[17] = second compound 0.316 µM, first compound 3.16 µM
[18] = second compound 0.316 µM, first compound 10 µM
[19] = second compound 1 µM, first compound 0.0316 µM
[20] = second compound 1 µM, first compound 0.1 µM
[21] = second compound 1 µM, first compound 0.316 µM
[22] = second compound 1 µM, first compound 1 µM
[23] = second compound 1 µM, first compound 3.16 µM
[24] = second compound 1 µM, first compound 10 µM
[25] = second compound 3.16 µM, first compound 0.0316 µM
[26] = second compound 3.16 µM, first compound 0.1 µM
[27] = second compound 3.16 µM, first compound 0.316 µM
[28] = second compound 3.16 µM, first compound 1 µM
[29] = second compound 3.16 µM, first compound 3.16 µM
[30] = second compound 3.16 µM, first compound 10 µM
[31] = second compound 10 µM, first compound 0.0316 µM
[32] = second compound 10 µM, first compound 0.1 µM
[33] = second compound 10 µM, first compound 0.316 µM
[34] = second compound 10 µM, first compound 1 µM
[35] = second compound 10 µM, first compound 3.16 µM
[36] = second compound 10 µM, first compound 10 µM
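Further: spheroids exposed to compounds for seven days.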
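Wherever viability, T/C is given: 100% = DMSO vehicle control viability.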

CC(C)n1c(=O)n(C)c2cnc3cc(F)c(-c4ccc(OCCCN5CCCCC5)nc4)cc3c21 + Cc1[nH]c2ccc(F)cc2c1-c1nc2c3cccnc3c3ncccc3c2[nH]1
IC50 (second compound 0.0316 µM): > 10000 nM | IC50 (second compound 0.1 µM): > 10000 nM | IC50 (second compound 0.316 µM): > 10000 nM | IC50 (second compound 1 µM): > 10000 nM | IC50 (second compound 3.16 µM): > 10000 nM | IC50 (second compound 10 µM): > 10000 nM | viability, T/C [1]: 110% | viability, T/C [2]: 123% | viability, T/C [3]: 113% | viability, T/C [4]: 91.4% | viability, T/C [5]: 77.3% | viability, T/C [6]: 71.3% | viability, T/C [7]: 116% | viability, T/C [8]: 95.3% | viability, T/C [9]: 103% | viability, T/C [10]: 96.2% | viability, T/C [11]: 72.9% | viability, T/C [12]: 60.3% | viability, T/C [13]: 91.8% | viability, T/C [14]: 124% | viability, T/C [15]: 115% | viability, T/C [16]: 114% | viability, T/C [17]: 88.2% | viability, T/C [18]: 62.9% | viability, T/C [19]: 118% | viability, T/C [20]: 83.4% | viability, T/C [21]: 131% | viability, T/C [22]: 112% | viability, T/C [23]: 88.5% | viability, T/C [24]: 75.9% | viability, T/C [25]: 100% | viability, T/C [26]: 89.5% | viability, T/C [27]: 91.5% | viability, T/C [28]: 95.1% | viability, T/C [29]: 84.8% | viability, T/C [30]: 80.8% | viability, T/C [31]: 98.9% | viability, T/C [32]: 93.7% | viability, T/C [33]: 94% | viability, T/C [34]: 97.4% | viability, T/C [35]: 85.5% | viability, T/C [36]: 73.8%

CC1COCCN1c1cc(-c2ccnn2C)c2ccnc(-c3ccn[nH]3)c2n1 (stereo not drawn) + Cc1[nH]c2ccc(F)cc2c1-c1nc2c3cccnc3c3ncccc3c2[nH]1
IC50 (second compound 0.0316 µM): 188 nM | IC50 (second compound 0.1 µM): 234 nM | IC50 (second compound 0.316 µM): 280 nM | IC50 (second compound 1 µM): 243 nM | IC50 (second compound 3.16 µM): 188 nM | IC50 (second compound 10 µM): 216 nM | viability, T/C [1]: 84% | viability, T/C [2]: 59.3% | viability, T/C [3]: 44.3% | viability, T/C [4]: 23.6% | viability, T/C [5]: 21% | viability, T/C [6]: 16.5% | viability, T/C [7]: 82% | viability, T/C [8]: 66% | viability, T/C [9]: 45.9% | viability, T/C [10]: 25.4% | viability, T/C [11]: 20.9% | viability, T/C [12]: 21.8% | viability, T/C [13]: 108% | viability, T/C [14]: 76.3% | viability, T/C [15]: 50.5% | viability, T/C [16]: 22.7% | viability, T/C [17]: 17.5% | viability, T/C [18]: 16.5% | viability, T/C [19]: 93.2% | viability, T/C [20]: 67% | viability, T/C [21]: 49% | viability, T/C [22]: 21.5% | viability, T/C [23]: 20.1% | viability, T/C [24]: 15.1% | viability, T/C [25]: 98.2% | viability, T/C [26]: 65.6% | viability, T/C [27]: 37.6% | viability, T/C [28]: 25% | viability, T/C [29]: 27.2% | viability, T/C [30]: 21.4% | viability, T/C [31]: 104% | viability, T/C [32]: 70.7% | viability, T/C [33]: 39.4% | viability, T/C [34]: 24.8% | viability, T/C [35]: 26.2% | viability, T/C [36]: 16.6%

CC1COCCN1c1cc(C2(O)CC3CCC(C2)O3)c2cnn(-c3ccn[nH]3)c2n1 (stereo not drawn) + Cc1[nH]c2ccc(F)cc2c1-c1nc2c3cccnc3c3ncccc3c2[nH]1
IC50 (second compound 0.0316 µM): 332 nM | IC50 (second compound 0.1 µM): 519 nM | IC50 (second compound 0.316 µM): 655 nM | IC50 (second compound 1 µM): 355 nM | IC50 (second compound 3.16 µM): 622 nM | IC50 (second compound 10 µM): 435 nM | viability, T/C [1]: 87.8% | viability, T/C [2]: 67.6% | viability, T/C [3]: 50.8% | viability, T/C [4]: 37.5% | viability, T/C [5]: 19.9% | viability, T/C [6]: 15.1% | viability, T/C [7]: 85.7% | viability, T/C [8]: 84.5% | viability, T/C [9]: 62.2% | viability, T/C [10]: 33.3% | viability, T/C [11]: 21.2% | viability, T/C [12]: 18.5% | viability, T/C [13]: 85.4% | viability, T/C [14]: 94.3% | viability, T/C [15]: 69.9% | viability, T/C [16]: 37.2% | viability, T/C [17]: 22% | viability, T/C [18]: 13.3% | viability, T/C [19]: 84.4% | viability, T/C [20]: 96.7% | viability, T/C [21]: 52.9% | viability, T/C [22]: 30.7% | viability, T/C [23]: 24.4% | viability, T/C [24]: 17.7% | viability, T/C [25]: 86.4% | viability, T/C [26]: 70.5% | viability, T/C [27]: 68.6% | viability, T/C [28]: 37.1% | viability, T/C [29]: 27.4% | viability, T/C [30]: 19.6% | viability, T/C [31]: 89.2% | viability, T/C [32]: 77.5% | viability, T/C [33]: 53.3% | viability, T/C [34]: 37.6% | viability, T/C [35]: 23.6% | viability, T/C [36]: 18.2%

O=C(c1cc(Cc2n[nH]c(=O)c3ccccc23)ccc1F)N1CCN(C(=O)C2CC2)CC1 + Cc1[nH]c2ccc(F)cc2c1-c1nc2c3cccnc3c3ncccc3c2[nH]1
IC50 (second compound 0.0316 µM): > 10000 nM | IC50 (second compound 0.1 µM): > 10000 nM | IC50 (second compound 0.316 µM): > 10000 nM | IC50 (second compound 1 µM): > 10000 nM | IC50 (second compound 3.16 µM): > 10000 nM | IC50 (second compound 10 µM): > 10000 nM | viability, T/C [1]: 107% | viability, T/C [2]: 113% | viability, T/C [3]: 98.3% | viability, T/C [4]: 102% | viability, T/C [5]: 89.5% | viability, T/C [6]: 81.1% | viability, T/C [7]: 108% | viability, T/C [8]: 119% | viability, T/C [9]: 88.3% | viability, T/C [10]: 99.5% | viability, T/C [11]: 124% | viability, T/C [12]: 95.5% | viability, T/C [13]: 93% | viability, T/C [14]: 90% | viability, T/C [15]: 72.6% | viability, T/C [16]: 115% | viability, T/C [17]: 102% | viability, T/C [18]: 118% | viability, T/C [19]: 91.5% | viability, T/C [20]: 100% | viability, T/C [21]: 108% | viability, T/C [22]: 92.3% | viability, T/C [23]: 92% | viability, T/C [24]: 68.3% | viability, T/C [25]: 81.1% | viability, T/C [26]: 98.3% | viability, T/C [27]: 89.7% | viability, T/C [28]: 88.1% | viability, T/C [29]: 97.9% | viability, T/C [30]: 88.8% | viability, T/C [31]: 106% | viability, T/C [32]: 110% | viability, T/C [33]: 88.2% | viability, T/C [34]: 80.2% | viability, T/C [35]: 101% | viability, T/C [36]: 83.7%
